Assay results: ChEMBL document CHEMBL3885881, “DrugMatrix”

Species: Rattus norvegicus
Assay: DrugMatrix - Regimen: Daily Repeat
Assay type: toxicity, organism-based, Sprague-Dawley
Design: regimen Daily Repeat, gender Male, age 6-8 weeks
Settings: in vivo, po, route oral GAVAGE, vehicle .5 % CMC; for ABSOLUTE BASOPHIL / ABSOLUTE EOSINOPHIL / ABSOLUTE LYMPHOCYTE / ABSOLUTE MONOCYTE / ABSOLUTE SEGMENTED NEUTROPHIL / BASOPHIL / EOSINOPHIL / ERYTHROCYTE COUNT / HEMATOCRIT / HEMOGLOBIN / LEUKOCYTE COUNT / LYMPHOCYTE / MEAN CORPUSCULAR HEMOGLOBIN / MEAN CORPUSCULAR HEMOGLOBIN CONCENTRATION / MEAN CORPUSCULAR VOLUME / MONOCYTE / NEUTROPHIL / NUCLEATED RED BLOOD CELLS / PLATELET COUNT: tissue Blood; for ALANINE AMINOTRANSFERASE / ALBUMIN / ALKALINE PHOSPHATASE / ASPARTATE AMINOTRANSFERASE / BLOOD UREA NITROGEN / CARBON DIOXIDE / CHLORIDE / CHOLESTEROL / CREATINE PHOSPHOKINASE / CREATININE / GLUCOSE / LACTATE DEHYDROGENASE / LIPASE / PHOSPHORUS / POTASSIUM / SODIUM / TOTAL BILIRUBIN / TOTAL PROTEIN / URIC ACID: tissue Plasma
[1] = 1 mg/kg, 72 h, dose level Low, time 3 day
[2] = 1 mg/kg, 120 h, dose level Low, time 5 day
[3] = 1500 mg/kg, 72 h, dose level High, time 3 day
[4] = 1500 mg/kg, 120 h, dose level High, time 5 day

SMILES: CCOC(=O)[C@H](CCc1ccccc1)N[C@@H](C)C(=O)N1[C@H](C(=O)O)C[C@@H]2CCC[C@@H]21
- ABSOLUTE BASOPHIL [1]: 0 CELLS/uL
- ABSOLUTE EOSINOPHIL [1]: 0 CELLS/uL
- ABSOLUTE LYMPHOCYTE [1]: 13012 CELLS/uL
- ABSOLUTE MONOCYTE [1]: 125.67 CELLS/uL
- ABSOLUTE SEGMENTED NEUTROPHIL [1]: 829 CELLS/uL
- BASOPHIL [1]: 0%
- EOSINOPHIL [1]: 0%
- ERYTHROCYTE COUNT [1]: 5.51 x10E6/uL
- HEMATOCRIT [1]: 35.1%
- HEMOGLOBIN [1]: 14.07 G/DL
- LEUKOCYTE COUNT [1]: 13.97 x10E3/uL
- LYMPHOCYTE [1]: 92.67%
- MEAN CORPUSCULAR HEMOGLOBIN [1]: 25.53 pg
- MEAN CORPUSCULAR HEMOGLOBIN CONCENTRATION [1]: 40.07 G/DL
- MEAN CORPUSCULAR VOLUME [1]: 63.73 fL
- MONOCYTE [1]: 1%
- NEUTROPHIL [1]: 6.33%
- NUCLEATED RED BLOOD CELLS [1]: 0 /100WBC
- PLATELET COUNT [1]: 1322.67 x10E3/uL
- ALANINE AMINOTRANSFERASE [1]: 44.33 u/L
- ALBUMIN [1]: 4.53 G/DL
- ALKALINE PHOSPHATASE [1]: 320.33 u/L
- ASPARTATE AMINOTRANSFERASE [1]: 82 u/L
- BLOOD UREA NITROGEN [1]: 17 mg/dL
- CARBON DIOXIDE [1]: 28 mmol/L
- CHLORIDE [1]: 100.33 MEQ/L
- CHOLESTEROL [1]: 74.33 mg/dL
- CREATINE PHOSPHOKINASE [1]: 223 u/L
- CREATININE [1]: 0.15 mg/dL
- GLUCOSE [1]: 156.33 mg/dL
- LACTATE DEHYDROGENASE [1]: 243 u/L
- LIPASE [1]: 9.33 u/L
- PHOSPHORUS [1]: 13.7 mg/dL
- POTASSIUM [1]: 7.23 MEQ/L
- SODIUM [1]: 146.6 MEQ/L
- TOTAL BILIRUBIN [1]: 0.27 mg/dL
- TOTAL PROTEIN [1]: 6.27 G/DL
- URIC ACID [1]: 1.87 mg/dL
- ABSOLUTE BASOPHIL [2]: 0 CELLS/uL
- ABSOLUTE EOSINOPHIL [2]: 73 CELLS/uL
- ABSOLUTE LYMPHOCYTE [2]: 14658 CELLS/uL
- ABSOLUTE MONOCYTE [2]: 332.67 CELLS/uL
- ABSOLUTE SEGMENTED NEUTROPHIL [2]: 1636.33 CELLS/uL
- BASOPHIL [2]: 0%
- EOSINOPHIL [2]: 0.33%
- ERYTHROCYTE COUNT [2]: 5.38 x10E6/uL
- HEMATOCRIT [2]: 35.13%
- HEMOGLOBIN [2]: 13.27 G/DL
- LEUKOCYTE COUNT [2]: 16.7 x10E3/uL
- LYMPHOCYTE [2]: 88.33%
- MEAN CORPUSCULAR HEMOGLOBIN [2]: 24.7 pg
- MEAN CORPUSCULAR HEMOGLOBIN CONCENTRATION [2]: 37.8 G/DL
- MEAN CORPUSCULAR VOLUME [2]: 65.37 fL
- MONOCYTE [2]: 1.67%
- NEUTROPHIL [2]: 9.67%
- NUCLEATED RED BLOOD CELLS [2]: 0 /100WBC
- PLATELET COUNT [2]: 1368.33 x10E3/uL
- ALANINE AMINOTRANSFERASE [2]: 58.33 u/L
- ALBUMIN [2]: 4.37 G/DL
- ALKALINE PHOSPHATASE [2]: 395 u/L
- ASPARTATE AMINOTRANSFERASE [2]: 74.67 u/L
- BLOOD UREA NITROGEN [2]: 20 mg/dL
- CARBON DIOXIDE [2]: 28.67 mmol/L
- CHLORIDE [2]: 101.67 MEQ/L
- CHOLESTEROL [2]: 69.67 mg/dL
- CREATINE PHOSPHOKINASE [2]: 158.67 u/L
- CREATININE [2]: 0.2 mg/dL
- GLUCOSE [2]: 153.67 mg/dL
- LACTATE DEHYDROGENASE [2]: 81.67 u/L
- LIPASE [2]: 8.33 u/L
- PHOSPHORUS [2]: 12.57 mg/dL
- POTASSIUM [2]: 6.7 MEQ/L
- SODIUM [2]: 146.17 MEQ/L
- TOTAL BILIRUBIN [2]: 0.2 mg/dL
- TOTAL PROTEIN [2]: 6.03 G/DL
- URIC ACID [2]: 1.43 mg/dL
- ABSOLUTE BASOPHIL [3]: 0 CELLS/uL
- ABSOLUTE EOSINOPHIL [3]: 134.33 CELLS/uL
- ABSOLUTE LYMPHOCYTE [3]: 16266.67 CELLS/uL
- ABSOLUTE MONOCYTE [3]: 0 CELLS/uL
- ABSOLUTE SEGMENTED NEUTROPHIL [3]: 1032.33 CELLS/uL
- BASOPHIL [3]: 0%
- EOSINOPHIL [3]: 0.67%
- ERYTHROCYTE COUNT [3]: 5.12 x10E6/uL
- HEMATOCRIT [3]: 34.53%
- HEMOGLOBIN [3]: 13.77 G/DL
- LEUKOCYTE COUNT [3]: 17.43 x10E3/uL
- LYMPHOCYTE [3]: 93%
- MEAN CORPUSCULAR HEMOGLOBIN [3]: 26.9 pg
- MEAN CORPUSCULAR HEMOGLOBIN CONCENTRATION [3]: 39.93 G/DL
- MEAN CORPUSCULAR VOLUME [3]: 67.37 fL
- MONOCYTE [3]: 0%
- NEUTROPHIL [3]: 6.33%
- NUCLEATED RED BLOOD CELLS [3]: 0.33 /100WBC
- PLATELET COUNT [3]: 1317.67 x10E3/uL
- ALANINE AMINOTRANSFERASE [3]: 41.33 u/L
- ALBUMIN [3]: 4.1 G/DL
- ALKALINE PHOSPHATASE [3]: 454.33 u/L
- ASPARTATE AMINOTRANSFERASE [3]: 81.67 u/L
- BLOOD UREA NITROGEN [3]: 30.67 mg/dL
- CARBON DIOXIDE [3]: 21.67 mmol/L
- CHLORIDE [3]: 104.67 MEQ/L
- CHOLESTEROL [3]: 56.67 mg/dL
- CREATINE PHOSPHOKINASE [3]: 460 u/L
- CREATININE [3]: 0.26 mg/dL
- GLUCOSE [3]: 192.67 mg/dL
- LACTATE DEHYDROGENASE [3]: 379.67 u/L
- LIPASE [3]: 8 u/L
- PHOSPHORUS [3]: 12.53 mg/dL
- POTASSIUM [3]: 7.28 MEQ/L
- SODIUM [3]: 143.5 MEQ/L
- TOTAL BILIRUBIN [3]: 0.17 mg/dL
- TOTAL PROTEIN [3]: 5.9 G/DL
- URIC ACID [3]: 1.93 mg/dL
- ABSOLUTE BASOPHIL [4]: 0 CELLS/uL
- ABSOLUTE EOSINOPHIL [4]: 56.33 CELLS/uL
- ABSOLUTE LYMPHOCYTE [4]: 15250 CELLS/uL
- ABSOLUTE MONOCYTE [4]: 259.67 CELLS/uL
- ABSOLUTE SEGMENTED NEUTROPHIL [4]: 1034 CELLS/uL
- BASOPHIL [4]: 0%
- EOSINOPHIL [4]: 0.33%
- ERYTHROCYTE COUNT [4]: 5.8 x10E6/uL
- HEMATOCRIT [4]: 35.77%
- HEMOGLOBIN [4]: 14.07 G/DL
- LEUKOCYTE COUNT [4]: 16.6 x10E3/uL
- LYMPHOCYTE [4]: 92%
- MEAN CORPUSCULAR HEMOGLOBIN [4]: 24.3 pg
- MEAN CORPUSCULAR HEMOGLOBIN CONCENTRATION [4]: 39.37 G/DL
- MEAN CORPUSCULAR VOLUME [4]: 61.63 fL
- MONOCYTE [4]: 1.67%
- NEUTROPHIL [4]: 6%
- NUCLEATED RED BLOOD CELLS [4]: 0 /100WBC
- PLATELET COUNT [4]: 1413.67 x10E3/uL
- ALANINE AMINOTRANSFERASE [4]: 55.33 u/L
- ALBUMIN [4]: 4.33 G/DL
- ALKALINE PHOSPHATASE [4]: 583.33 u/L
- ASPARTATE AMINOTRANSFERASE [4]: 89.33 u/L
- BLOOD UREA NITROGEN [4]: 31.33 mg/dL
- CARBON DIOXIDE [4]: 29 mmol/L
- CHLORIDE [4]: 102 MEQ/L
- CHOLESTEROL [4]: 35 mg/dL
- CREATINE PHOSPHOKINASE [4]: 314.67 u/L
- CREATININE [4]: 0.26 mg/dL
- GLUCOSE [4]: 150.33 mg/dL
- LACTATE DEHYDROGENASE [4]: 374.33 u/L
- LIPASE [4]: 8.67 u/L
- PHOSPHORUS [4]: 11.03 mg/dL
- POTASSIUM [4]: 7.1 MEQ/L
- SODIUM [4]: 143.93 MEQ/L
- TOTAL BILIRUBIN [4]: 0.27 mg/dL
- TOTAL PROTEIN [4]: 6.3 G/DL
- URIC ACID [4]: 1.6 mg/dL
